Our source for the T/C values is PubChem BioAssay AID330 (DTP/NCI, 2004).

SMILES strings stand for the structures. Where “and” joins values, the source holds several entries; their conditions need not be identical. Equal entries are not always repeated. Inconclusive results and toxic doses are left out.

The subject of the assay is P388 leukemia ip, CD2F1 mice, survival T/C. The assay is described as follows: NCI In Vivo Anticancer Drug Screen. Data for tumor model P388 Leukemia (intraperitoneal) in CD2F1 (CDF1) mice. The settings on record: endpoint: median survival time, higher = longer survival. In outline: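 Mice carrying the transplanted tumor received test compound or vehicle. Survival was recorded in each group, and the value is the treated-group measurement divided by that of the vehicle-treated control group.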

Where [1] appears, read: dose: 25.0 mg/kg/injection, schedule: Q01DX009 (ip), vehicle: saline with Tween-80.
Setting [2] is: dose: 25.0 mg/kg/injection, schedule: Q04DX003 (ip), vehicle: saline with Tween-80.
The mark [3] stands for this setting: dose: 50.0 mg/kg/injection, schedule: Q01DX009 (ip), vehicle: saline with Tween-80.
[4] abbreviates: dose: 50.0 mg/kg/injection, schedule: Q01DX005 (ip), vehicle: saline with Tween-80.
Where [5] appears, read: dose: 100.0 mg/kg/injection, schedule: Q01DX005 (ip), vehicle: saline with Tween-80.
[6] abbreviates: dose: 200.0 mg/kg/injection, schedule: Q01DX005 (ip), vehicle: saline with Tween-80.
Where [7] appears, read: dose: 100.0 mg/kg/injection, schedule: Q01DX001 (ip), vehicle: Klucel (hydroxypropylcellulose) (HPC).
Setting [8] is: dose: 50.0 mg/kg/injection, schedule: Q01DX009 (ip), vehicle: saline.
Where [9] appears, read: dose: 100.0 mg/kg/injection, schedule: Q01DX009 (ip), vehicle: saline.
[10] abbreviates: dose: 200.0 mg/kg/injection, schedule: Q01DX009 (ip), vehicle: saline.

Consider `Cc1cc(N)c(C)c(C)c1O`, for which the T/C runs as follows: under setting [1], 113 % of control; under setting [2], 100 % of control; under setting [3], 118 % of control; (dose: 50.0 mg/kg/injection, schedule: Q04DX003 (ip), vehicle: saline with Tween-80) 110 % of control; (dose: 100.0 mg/kg/injection, schedule: Q04DX003 (ip), vehicle: saline with Tween-80) 110 % of control.
For the molecule `CN=c1ccc2cc3ccc(NC)cc3oc-2c1`, the T/C reads like this: (dose: 50.0 mg/kg/injection, schedule: Q01DX005 (ip), vehicle: saline) 92 % of control; (dose: 100.0 mg/kg/injection, schedule: Q01DX005 (ip), vehicle: saline) 89 % of control.
On to `Cc1cc[n+](C2=C(Nc3cc(C)cc(C)c3)C(=O)c3ccccc3C2=O)cc1`, for which the T/C runs as follows: under setting [4], 111 % of control; under setting [5], 119 % of control; under setting [6], 90 % of control.
Take `C/C(=C\c1ccc(OCC(=O)O)c2ccccc12)[N+](=O)[O-]`: the T/C (dose: 25.0 mg/kg/injection, schedule: Q01DX001 (ip), vehicle: saline with Tween-80) is 110 % of control; the T/C (dose: 50.0 mg/kg/injection, schedule: Q01DX001 (ip), vehicle: saline with Tween-80) was 111 % of control; the T/C (dose: 100.0 mg/kg/injection, schedule: Q01DX001 (ip), vehicle: saline with Tween-80) is 101 % of control.
As for `C=C1C(=O)C(CCCC)=C(CCC)C1O` (stereo not drawn), the T/C runs as follows: (dose: 60.0 mg/kg/injection, schedule: Q01DX005 (ip), vehicle: saline with Tween-80) 100 % of control; (dose: 120.0 mg/kg/injection, schedule: Q01DX005 (ip), vehicle: saline with Tween-80) 107 % of control.
With `O=C1c2ccccc2C(=O)c2cc(NC(=O)C(F)(F)F)ccc21`, the T/C is 99 % of control (dose: 50.0 mg/kg/injection, schedule: Q01DX005 (ip), vehicle: Klucel + Tween-80); 95 % of control (dose: 100.0 mg/kg/injection, schedule: Q01DX005 (ip), vehicle: Klucel + Tween-80); 96 % of control (dose: 200.0 mg/kg/injection, schedule: Q01DX005 (ip), vehicle: Klucel + Tween-80).
For `CC(=O)c1cc2c(cc1Br)OCO2`, the T/C under setting [7] is 100 % of control; the T/C (dose: 200.0 mg/kg/injection, schedule: Q01DX001 (ip), vehicle: Klucel (hydroxypropylcellulose) (HPC)) was 102 % of control; the T/C (dose: 400.0 mg/kg/injection, schedule: Q01DX001 (ip), vehicle: Klucel (hydroxypropylcellulose) (HPC)) is 108 % of control.
As to `COc1cccc2c1C(=O)c1c(O)c3c(c(O)c1C2=O)C[C@@](O)(C(=O)CO)C[C@@H]3OC1CC(NC(=S)Nc2ccc3ccccc3c2)C(O)C(C)O1` (stereo partly drawn), the T/C was 92 % of control (dose: 3.13 mg/kg/injection, schedule: Q01DX009 (ip), vehicle: saline); 99 % of control (dose: 6.25 mg/kg/injection, schedule: Q01DX009 (ip), vehicle: saline); 99 % of control (dose: 12.5 mg/kg/injection, schedule: Q01DX009 (ip), vehicle: saline); 101 % of control (dose: 25.0 mg/kg/injection, schedule: Q01DX009 (ip), vehicle: saline); 108 % of control under setting [8].
For `Nc1cc(C(F)(F)F)ccc1-c1ccn[nH]1`, the T/C reads like this: under setting [8], 94 % of control; under setting [9], 97 % of control; under setting [10], 96 % of control.
Regarding `COc1nc(NC2OCC(O)C(O)C2O)c(C=O)c(=O)n1C` (stereo not drawn), the T/C is 100 % of control (dose: 60.0 mg/kg/injection, schedule: Q01DX005 (ip), vehicle: saline); 90 % of control (dose: 120.0 mg/kg/injection, schedule: Q01DX005 (ip), vehicle: saline); 90 % of control (dose: 240.0 mg/kg/injection, schedule: Q01DX005 (ip), vehicle: saline).
With `COc1ccc(NCCc2ccc(-n3ncc(C(=O)NN)c3N)nn2)cc1OC`, the T/C was 93 % of control (dose: 75.0 mg/kg/injection, schedule: Q01DX005 (ip), vehicle: other); 93 % of control (dose: 150.0 mg/kg/injection, schedule: Q01DX005 (ip), vehicle: other); 100 % of control (dose: 250.0 mg/kg/injection, schedule: Q01DX005 (oral), vehicle: water); 107 % of control (dose: 500.0 mg/kg/injection, schedule: Q01DX005 (oral), vehicle: water); 110 % of control (dose: 1000.0 mg/kg/injection, schedule: Q01DX005 (oral), vehicle: water).
Regarding `O=NN(CCF)C(=O)NC1CCCCC1`, the T/C runs as follows: (dose: 16.5 mg/kg/injection, schedule: Q04DX003 (ip), vehicle: saline with Tween-80) 209 % of control; under setting [2], 225 % of control.
As for `Cc1cc2c(cc1Cl)ncn2C`, the T/C reads like this: under setting [8], 96 % of control; under setting [9], 112 % of control; under setting [10], 118 % of control.
As to `N#CN(Cc1ccccc1)Cc1ccccc1.[I][Sn]([c]1ccccc1)([c]1ccccc1)[c]1ccccc1`, the T/C was 101 % of control (dose: 1.5 mg/kg/injection, schedule: Q01DX005 (ip), vehicle: saline with Tween-80); 108 % of control (dose: 3.0 mg/kg/injection, schedule: Q01DX005 (ip), vehicle: saline with Tween-80); 100 % of control (dose: 6.0 mg/kg/injection, schedule: Q01DX005 (ip), vehicle: saline with Tween-80); 94 % of control (dose: 6.25 mg/kg/injection, schedule: Q01DX005 (ip), vehicle: saline with Tween-80).
As to `ClC1=C(Cl)C(Cl)=C(Cl)C1=C/C=C/c1ccccc1`, the T/C under setting [1] is 99 % of control; the T/C under setting [3] is 100 % of control; the T/C (dose: 100.0 mg/kg/injection, schedule: Q01DX009 (ip), vehicle: saline with Tween-80) is 91 % of control.
Turning to `Nc1nc2ncc(CNc3ccc(C(=O)NC(CCC(=O)O)C(=O)O)cc3)cc2c(=O)[nH]1` (stereo not drawn), the T/C under setting [4] is 100 % of control, the T/C under setting [5] is 117 % of control and the T/C under setting [6] was 102 % of control.
With `COC(=O)CCCCc1ccc(CCCCC(=O)OC)c2ccccc12`, the T/C (dose: 50.0 mg/kg/injection, schedule: Q01DX009 (ip), vehicle: other) was 103 % of control; the T/C (dose: 100.0 mg/kg/injection, schedule: Q01DX009 (ip), vehicle: other) was 100 % of control; the T/C (dose: 200.0 mg/kg/injection, schedule: Q01DX009 (ip), vehicle: other) is 97 % of control.
For `Cn1c(C=O)cnc1[N+](=O)[O-]`, the T/C by setting is: (dose: 12.5 mg/kg/injection, schedule: Q01DX009 (ip), vehicle: Klucel (hydroxypropylcellulose) (HPC)) 108 % of control; (dose: 25.0 mg/kg/injection, schedule: Q01DX009 (ip), vehicle: Klucel (hydroxypropylcellulose) (HPC)) 111 % of control; (dose: 50.0 mg/kg/injection, schedule: Q01DX009 (ip), vehicle: Klucel (hydroxypropylcellulose) (HPC)) 111 % of control and 115 % of control.
With `Clc1ccc2nc(Cl)[nH]c2c1`, the T/C is, setting by setting: (dose: 50.0 mg/kg/injection, schedule: Q01DX005 (ip), vehicle: Klucel (hydroxypropylcellulose) (HPC)) 102 % of control; (dose: 100.0 mg/kg/injection, schedule: Q01DX005 (ip), vehicle: Klucel (hydroxypropylcellulose) (HPC)) 100 % of control; (dose: 200.0 mg/kg/injection, schedule: Q01DX005 (ip), vehicle: Klucel (hydroxypropylcellulose) (HPC)) 99 % of control.
For the molecule `Nn1c(N/N=C\c2ccccc2)nnc1N/N=C/c1ccccc1`, the T/C reads like this: (dose: 50.0 mg/kg/injection, schedule: Q01DX001 (ip), vehicle: Klucel (hydroxypropylcellulose) (HPC)) 113 % of control; under setting [7], 105 % of control.
